The values below come from US20230280275A1, “PHOTOACTIVATABLE VIBRATIONAL PROBES AND USES THEREOF” (California Institute of Technology, priority 2021, published 2023).

For one data set, the system named is lysosomes. The data set is described as follows: Live-cell photo-uncaging lysosomes imaging, SRS/fluorescence co-localization. Format: cell-based. From the text:
(§1) An integrated laser (picoEMERALD, Applied Physics and Electronics, Inc.) was used as a light source for both pump and Stokes beams. It produces 2 ps pump (tunable from 770 nm - 990 nm, bandwidth 0.5 nm, spectral bandwidth ~ 7 cm-1 ) and Stokes (1031.2 nm, spectral bandwidth 10 cm-1 ) beams with 80 MHz repetition rate. Stokes beam is modulated at 20 MHz by an internal electro-optic modulator. The spatially and temporally overlapped pump and Stokes beams are introduced into an inverted multiphoton laser scanning microscopy (FV3000, Olympus), and then focused onto the sample by a 25X water objective (XLPLN25XWMP, 1.05 N.A., Olympus). Transmitted pump and Stokes beams are collected by a high N.A. condenser lens (oil immersion, 1.4 N.A., Olympus) and pass through a bandpass filter (893/209 BrightLine, 25 mm, AVR Optics) to filter out Stokes beam. A large area (10×10 mm) Si photodiode (S3590-09, Hamamatsu) is used to measure the remaining pump beam intensity. 64 V DC voltage was used on the photodiode to increase saturation threshold and reduce response time. The output current is terminated by a 50 Ω terminator and pre-filtered by an 19.2-23.6-MHz band-pass filter (BBP-21.4+, Mini-Circuits) to reduce laser and scanning noise. The signal is then demodulated by a lock-in amplifier (SR844, Stanford Research Systems) at the modulation frequency. The in-phase X output is fed back to the Olympus IO interface box (FV30-ANALOG) of the microscope. Image acquisition speed is limited by 30 µs time constant set for the lock-in amplifier. Correspondingly, we use 80 µs pixel dwell time, which gives a speed of 8.5 s frame-1 for a 320-by-320-pixel field of view. Laser powers are monitored through image acquisition by an internal power meter and power fluctuation are controlled within 5% by the laser system. 16-bit grey scale images are acquired by Fluoview software. SRS spectra were acquired by fixing the Stokes beam at 1031.2 nm and scanning the pump beam through the designated wavelength range point by point. 10 mM EdU (H2O) sample was used as a standard to give RIE of different probes. Fluorescence images were collected using the same Olympus FV3000 confocal microscope with CW laser excitation (405, 488, 561 and 640 nm, Coherent OBIS LX laser) and standard bandpass filter sets. The correlation coefficients (Pearson’s R value) between SRS images and fluorescence images were calculated using ‘Coloc 2’ tool of ImageJ.
Lysosomes imaging: Cells were incubated in 30 µM Me-Lyso (13) with complete DMEM medium for 2 hours in the incubator. Cells were washed with PBS three times before imaging. For colocalization, 0.4 x LysoView™ 488 (Biotium, #70067) was used to stain cells for 30 minutes. For photo-uncaging, 405 nm laser was used to scan the selected field of view for 2 minutes (1.6 mW).

Data set [1] is described as follows: Spontaneous Raman / hyperspectral SRS spectroscopy of probes and uncaged alkynes. Format: physicochemical. The following applies: for Raman Peak: cell silent region, model systems; for RIE (relative Raman intensity to EdU): 10 mM EdU (H2O) as standard.
From the text: as §1
To perform spontaneous Raman spectroscopy, spontaneous Raman spectra were acquired using an upright confocal Raman spectrometer (Horiba Raman microscope; Xplora plus). A 532 nm YAG laser is used to illuminate the sample with a power of 12 mW on sample through a 100 x, N.A. 0.9 objective (MPLANN; Olympus) with 100 µm slit and 500 µm hole. Spectro/Raman shift center was set to be 2000.04 cm-1 . With a 1200 grating, Raman shift ranges from 690.81 cm-1 to 3141.49 cm-1 was acquired to cover whole biological relevant Raman peaks. The acquired spectra were processed by the LabSpec 6 software for baseline correction.
Cyclopropenone caging has been previously adopted for photoactivation and subsequent biorthogonal labeling of fluorophores in fluorescence microscopy. […] Herein the alkyne Raman signal generation from photo-DIBO light-activation was first measured (FIG. 1A). […] Compared to 5-ethynyl-2′-deoxyuridine (EdU), the well-adopted benchmark for Raman intensity quantification, the relative Raman intensity to EdU (RIE) of the strained alkyne DIBO is only 1.8 (Table 1). […] Given this, it is reasoned that diphenylcyclopropenone (i.e. cyclopropenone-caged 1-yne, 1-cyclo, 1, FIG. 1A) should be a better photoactivatable Raman scaffold with higher Raman sensitivity after uncaging. Indeed, UV-uncaging of 1-cyclo (1), which started from a similarly weak Raman peak at 1860 cm^-1 from photo-DIBO, produced an intense sharp peak for 1-yne (2) at 2226 cm^-1 (FIG. 1B, dashed black vs solid blue spectra) with an improved RIE values to about 4

Data set [2] in a line: UV-Vis absorption spectra. The class given is physicochemical. The following applies: 20 uM in DMSO. As to the method:
UV-Vis absorption spectra were recorded on a Varian Cary 50 UV-Vis Spectrophotometer (Agilent).

Data set [3] in a line: (HP)LC-MS for assessing the stability of cyclopropenone probes in physiological condition. Format: physicochemical. The following applies: 10 mM cysteine (PBS), 37° C., HPLC trace. As to the method: The assessed probe was first dissolved in DMSO and later diluted in 10 mM cysteine (Sigma, 168149, dissolved in PBS) solution or DMEM (Corning, 35-015-CV) medium. Analytical HPLC coupled with mass spectrometry (LC-MS) was performed on Agilent 1290 infinity LC system using ZORBAX RRHD Eclipse Plus C18, 95 Å, 2.1 x 50 mm, 1.8 µm column with Agilent 6140 Series Quadrupole LCMS / LC-MS / MSD / Mass Spectrometer System. The mobile phase is water (0.1% AcOH) and acetonitrile with running method of gradient 5%-95% acetonitrile (1 ml/min, 4 min for total running time). The mass spectrometry detection region ranges from 100 to 800 AMU. The data shown in the main figures and supplementary figures are the absorption (280.8 nm) intensity traces.
It was hypothesized that this was likely because the cyclopropenone structures are susceptible to nucleophilic attack, leading to ring-opened α,β-unsaturated acids derivatives. Cysteines, glutathione, and other biological thiols are strong nucleophiles and could easily deactivate cyclopropenones. The stability of 1-cyclo (1) in 10 mM cysteine phosphate-buffered saline (PBS) at 37° C. was therefore tested, mimicking physiological conditions.

The test system of another data set is endoplasmic reticulum. In words: Live-cell photo-uncaging ER imaging, SRS/fluorescence co-localization. The class given is cell-based. The note with it: live HeLa cells.
From the text: as §1
ER imaging: Cells were incubated in 40 µM Me-ER (14) with complete DMEM medium for 2 hours in the incubator. Cells were washed with PBS three times before imaging. For colocalization, 0.5 µM ER-Tracker™ Red (Invitrogen, E34250) was used to stain cells for 1 hour. For photo-uncaging, 405 nm laser was used to scan the selected field of view for 2 minutes (1.6 mW).

The next data set relates to live HeLa cells. The data set is described as follows: SRS imaging of live HeLa cells incubated with unmethylated probes before and after 405 nm illumination. Format: cell-based. The note with it: 20 µM, 30 minutes of labeling; 2226 cm^-1 channel after 405 nm. As to the method: FIG. 7 provides exemplary results from SRS imaging of live HeLa cells incubated with 1-cyclo (1, 20 µM, 30 minutes of labeling, top) and Cyclo-Mito (7, 20 µM, 30 minutes of labeling, bottom) at the CH3 (2940 cm^-1) channel, and the expected uncaged alkyne channel (2226 cm^-1) before and after 405 nm illumination. Scale bar: 10 µm.
An integrated laser (picoEMERALD, Applied Physics and Electronics, Inc.) was used as a light source for both pump and Stokes beams. It produces 2 ps pump (tunable from 770 nm - 990 nm, bandwidth 0.5 nm, spectral bandwidth ~ 7 cm-1 ) and Stokes (1031.2 nm, spectral bandwidth 10 cm-1 ) beams with 80 MHz repetition rate. Stokes beam is modulated at 20 MHz by an internal electro-optic modulator. […] Laser powers are monitored through image acquisition by an internal power meter and power fluctuation are controlled within 5% by the laser system. […] Fluorescence images were collected using the same Olympus FV3000 confocal microscope with CW laser excitation (405, 488, 561 and 640 nm, Coherent OBIS LX laser) and standard bandpass filter sets. The correlation coefficients (Pearson’s R value) between SRS images and fluorescence images were calculated using ‘Coloc 2’ tool of ImageJ.

A short description of data set [4]: Photoactivation (UV-uncaging) monitored by time-series spontaneous Raman spectra. Format: physicochemical. As to the method: The 365 nm UV light used to activate cyclopropenones comes from a UV handlamp (Analytik Jena UVP EL Series Lamp, UVLS-24, 4 Watt, 2 UV 254/365 nm, typically used for TLC monitoring in organic synthesis). The power of 365 nm UV of this handlamp was measured to be 15 mW/cm2 on samples.
Next, the photo-uncaging kinetics for both 1-cyclo (1) and 2-cyclo (3) were compared. […] With 365 nm lamp illumination, the characteristic peaks of cyclopropenones (~1860 cm^-1) continue to drop while the alkyne peaks (2226 cm^-1) gradually increase for both molecules (FIG. 1D). […] The progression of the UV-activation reactions could also be confirmed by the change in the corresponding absorption spectra (FIG. 6).

The test system of the next data set is lipid droplets. In words: Live-cell photo-uncaging lipid droplets imaging, SRS/fluorescence co-localization. The following applies: live HeLa cells, SRS vs Lipid spot 610. Format: cell-based.
From the text: as §1
Lipid droplets imaging by Me-LD (15): Cells were incubated in 20 µM Me-LD (15) with complete DMEM medium for 30 minutes in the incubator. Cells were washed with PBS three times before imaging. For colocalization, 0.5 x LipidSpot™ 610 (Biotium, #70069) was used to stain cells for 20 minutes. For photo-uncaging, 405 nm laser was used to scan the selected field of view for 2 minutes (1.6 mW).
Lipid droplets imaging by Cyclo-LD (17): Cells were washed with PBS for three times before labeling. Cells were then incubated in 20 µM Cyclo-LD (17) with PBS for 30 minutes in the incubator. Cells were washed with PBS three times before imaging. For colocalization, 0.5 x LipidSpot™ 610 (Biotium, #70069) was used to stain cells for 20 minutes. For photo-uncaging, 405 nm laser (1.6 mW) was used to scan the selected field of view for 2 minutes.

Setting [5] is: live HeLa cells, SRS vs Lysoview 488, Fl/2205 cm^-1 channel.
[6] abbreviates: SRS vs ER tracker red, Fl/2205 cm^-1 channel.

In the case of `Cc1cc(C)c(-c2c(-c3c(C)cc(OCCN(C)C)cc3C)c2=O)c(C)c1` [Me-Lyso (13)], in the data set with lysosomes (setting [5]), the “correlation coefficient (Pearson's R value), set 1” value (“correlation coefficient … set 1” for short) is listed as 0.60; the “correlation coefficient (Pearson's R value), set 2” value (from here on “correlation coefficient … set 2”) is 0.67; the “correlation coefficient (Pearson's R value), set 3” value (from here on “correlation coefficient … set 3”) is 0.62. In the data set with lysosomes (live cells co-labeled with Lysoview 488), the “lysosomes targeting (co-localization)” value is listed as “desired co-localization”.

As to `C(#Cc1ccccc1)c1ccccc1` [1-yne (2), diphenylacetylene], the “Raman Peak” value in data set [1] turned out to be 2226 cm⁻¹. In data set [2], the Abs was 283 nm and the εabs worked out at 32300 M⁻¹ cm⁻¹.

`Cc1cc(C)c(-c2c(-c3c(C)cc(O)cc3C)c2=O)c(C)c1` [compound 8]: in data set [3], the “time stable to cysteine” value is at least 24 h.

`O=c1c(C#Cc2ccccc2)c(C#Cc2ccccc2)c1=O` [3-cyclo (5), 3,4-Bis(phenylethynyl)-3-cyclobutene-1,2-dione]: in data set [1], the “RIE (relative Raman intensity to EdU)” value was 13 and the “Raman Peak” value stood at 2194 cm⁻¹. In data set [2], this compound registered an Abs of 371 nm and a εabs of 25500 M⁻¹ cm⁻¹.

For `Cc1ccc(S(=O)(=O)NCCCOc2cc(C)c(-c3c(-c4c(C)cc(C)cc4C)c3=O)c(C)c2)cc1` [Me-ER (14)], the “targeting, photoactivation and imaging performances” value in the data set with endoplasmic reticulum was “highly specific targeting”. For the same compound, in the data set with endoplasmic reticulum (setting [6]), the “correlation coefficient … set 1” value was found to be 0.86; the “correlation coefficient … set 2” value is given as 0.80; the “correlation coefficient … set 3” value is 0.90.

Consider `O=c1c(-c2ccccc2)c1-c1ccc(OCCC[P+](c2ccccc2)(c2ccccc2)c2ccccc2)cc1.[Br-]` [Cyclo-Mito (7)], for which the “uncaging signals in labeled live cells” value in the data set with live HeLa cells is reported as “did not produce any observable uncaging signals”.

`O=c1c(C#Cc2ccccc2)c1-c1ccccc1` [2-cyclo (3), 2-phenyl-3-(phenylethynyl)cycloprop-2-en-1-one]: in data set [1], the “RIE (relative Raman intensity to EdU)” value was found to be 7.5 and the “Raman Peak” value was determined as 2218 cm⁻¹. In data set [2], this compound showed an Abs of 324 nm and a εabs of 32400 M⁻¹ cm⁻¹. Besides, the uncaging kinetics k in data set [4] (365 nm illumination (15 mW/cm^2), increase of alkyne peak 2226 cm^-1) was 0.020 s⁻¹. In addition, the “uncaging kinetics, fold faster than 1-cyclo (1)” value in data set [4] (365 nm lamp illumination) is recorded as “about 5 fold”.

As for `O=c1c(-c2ccccc2)c1-c1ccc(OCCOCCOCCCCCCCl)cc1` [Cyclo-LD (17), 2-(4-(2-(2-((6-chlorohexyl)oxy)ethoxy)ethoxy)phenyl)-3-phenylcycloprop-2-en-1-one], in the data set with lipid droplets (Fl/2226 cm^-1 channel), the “correlation coefficient … set 1” value came out at 0.50 and the “correlation coefficient … set 2” value came to 0.76.

As for `Cc1cc(C)c(-c2c(-c3c(C)cc(OCCOCCOCCCCCCCl)cc3C)c2=O)c(C)c1` [Me-LD (15)], in the data set with lipid droplets (Fl/2205 cm^-1 channel), the “correlation coefficient … set 1” value is recorded as 0.54; the “correlation coefficient … set 2” value is given as 0.54; the “correlation coefficient … set 3” value turned out to be 0.50.

Regarding “dibenzocyclooctynes [DIBO, reference compound]”, in data set [1], the “RIE (relative Raman intensity to EdU)” value was found to be 1.8 and the “Raman Peak” value is 2171 cm⁻¹. Besides, in data set [2], the Abs was found to be 323 nm and the εabs is 24200 M⁻¹ cm⁻¹.
